Laboratory results: ChEMBL document CHEMBL4665751, “Discovery of Clinical Candidate (5-(3-(4-Chlorophenoxy)prop-1-yn-1-yl)-3-hydroxypicolinoyl)glycine, an Orally Bioavailable Prolyl Hydroxylase Inhibitor for the Treatment of Anemia” (J Med Chem, 2020)
Activity calls are given as the source filed them. No cut-off for these calls is given here.

Tests used:
Egl nine homolog 1 = Egl nine homolog 1 (Homo sapiens, UniProt Q9GZT9); assay: Inhibition of FITC-HIF1alpha (556 to 574 residues) binding to PHD2 (181 to 426 residues) (unknown origin) by fluorescence polarization assay
[1] = In vivo inhibition of PHD2 in C57BL/6 mouse assessed as increase in EPO plasma level by measuring EPO level at 15 mg/kg, iv measured after 4 hrs by ELISA; assay type: functional
Mus musculus [2] = assay: Antianemic activity in cisplatin-induced C57BL/6 mouse anemia model assessed as improvement in anemia at 25 mg/kg, po administered every other day for 1 month; assay type: functional; conditions: time 1 months, 730 h
Mus musculus [3] = assay: Antianemic activity in cisplatin-induced C57BL/6 mouse anemia model assessed as improvement in anemia at 10 mg/kg, po administered every other day for 1 month; assay type: functional; conditions: time 1 months, 730 h
Mus musculus [4] = assay: Antianemic activity in cisplatin-induced C57BL/6 mouse anemia model assessed as increase in haemoglobin level administered orally every other day for 1 month; assay type: functional, organism-based; conditions: dose mg/kg 10-25, time 1.0 months
Mus musculus [5] = assay: Induction of erythropoiesis in po dosed C57BL/6 mouse assessed as increase in red blood cell count administered thrice for 3 days measured 4 hrs post last dose; assay type: functional, organism-based; conditions: dose mg/kg 5-50, time 72.0 hrs
Mus musculus [6] = assay: In vivo inhibition of PHD2 in C57BL/6 mouse assessed as upregulation of EPO plasma level by measuring EPO level at 15 mg/kg, po measured after 4 hrs by ELISA; assay type: functional, organism-based
Mus musculus [7] = assay: In vivo inhibition of PHD2 in po dosed C57BL/6 mouse assessed as upregulation of EPO plasma level administered 4 times for 3 days by ELISA; assay type: functional, organism-based; conditions: dose mg/kg 5-50, time 3.0 day

Sequence of Egl nine homolog 1 (Q9GZT9 whole entry, the tested form may be a part): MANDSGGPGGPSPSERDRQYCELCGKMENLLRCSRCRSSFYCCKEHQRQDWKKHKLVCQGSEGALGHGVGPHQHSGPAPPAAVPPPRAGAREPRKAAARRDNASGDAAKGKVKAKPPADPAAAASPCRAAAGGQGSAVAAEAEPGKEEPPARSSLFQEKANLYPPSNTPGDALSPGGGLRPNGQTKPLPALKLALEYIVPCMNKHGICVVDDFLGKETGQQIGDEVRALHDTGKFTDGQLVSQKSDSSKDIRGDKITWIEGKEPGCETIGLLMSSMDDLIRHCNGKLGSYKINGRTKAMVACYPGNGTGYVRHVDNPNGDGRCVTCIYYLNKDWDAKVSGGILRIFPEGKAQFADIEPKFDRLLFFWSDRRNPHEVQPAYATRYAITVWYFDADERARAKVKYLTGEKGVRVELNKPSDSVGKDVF

| Structure (SMILES) | IC50 (Egl nine homolog 1) [nM] | further results |
| --- | --- | --- |
| O=C(O)CNC(=O)c1ncc(C#CCOCCc2ccc(Cl)cc2)cc1O | 408 | – |
| O=C(O)CNC(=O)c1ncc(C#CCOc2cccc3ccccc23)cc1O | 346 | – |
| COc1ccc(OCC#Cc2cnc(C(=O)NCC(=O)O)c(O)c2)cc1 | – | Activity [1]: >1000 pg/mL |
| N#Cc1ccc(OCC#Cc2cnc(C(=O)NCC(=O)O)c(O)c2)cc1 | 263 | – |
| O=C(O)CNC(=O)c1ncc(C#CCOc2cccc(Cl)c2)cc1O | 587 | – |
| O=C(O)CNC(=O)c1ncc(C#CCOc2ccccc2Cl)cc1O | – | Activity [1]: >1000 pg/mL |
| O=C(O)CNC(=O)c1ncc(C#CCOc2ccccc2C(F)(F)F)cc1O | 1070 | – |
| O=C(O)CNC(=O)c1ncc(C#CCOCc2ccc(Cl)cc2)cc1O | 84.3 | – |
| Cc1cccc(OCC#Cc2cnc(C(=O)NCC(=O)O)c(O)c2)c1 | 125 | Activity [1]: >1000 pg/mL |
| O=C(O)CNC(=O)c1ncc(C#CCOc2ccc(-c3ccccc3)cc2)cc1O | 825 | – |
| CN(CC#Cc1cnc(C(=O)NCC(=O)O)c(O)c1)c1ccccc1 | 454 | – |
| Cc1nc(C(=O)NCC(=O)O)c(O)c2ccc(Oc3ccccc3)cc12 [ROXADUSTAT] | – | Activity (Mus musculus [2]): 115.2%; Activity (Mus musculus [3]): 86.4%; Activity (Mus musculus [4]): Active; Activity (Mus musculus [5]): Dose-dependent effect; inhibition (Mus musculus [6]): Active; inhibition (Mus musculus [7]): Dose-dependent effect |
| COc1cccc(OCC#Cc2cnc(C(=O)NCC(=O)O)c(O)c2)c1 | 428 | – |
| O=C(O)CNC(=O)c1ncc(C#CCOc2cccc(C(F)(F)F)c2)cc1O | 877 | – |
| COc1ccccc1OCC#Cc1cnc(C(=O)NCC(=O)O)c(O)c1 | 218 | – |
| O=C(O)CNC(=O)c1ncc(C#CCOc2cccc(F)c2)cc1O | 256 | – |
